Data published in patent US8569336B2, “Compounds for the treatment of inflammatory disorders” (priority 2008, dated 2013).
pIC50, pKi: −log10 of the molar value. Where two headings read alike, the source gives them in different places.

What was measured:
[1] = target: T1, purified catalytic domain of recombinant human TACE (rhTACEc) (Homo sapiens, UniProt P78536, N452Q/S266A); assay: TACE kinetic assay: cleavage of internally quenched peptide substrate TNF-FRET 2 (Ki); format: biochemical; conditions: TNF-FRET 2 substrate
T1 construct: 6xHis (C); made in house; host or cells: baculovirus/Hi5 insect cells

[2] = tested on: TNF-α production from human whole blood; assay: Inhibition of TNF-α production from human whole blood (hWBA), LPS stimulated, ELISA; format: cell-based; conditions: Homo sapiens, TNF-α by ELISA, read-out: hWBA (IC50)
[3] = Area under the curve determinations of plasma levels in rats (rrAUC), oral 10 mg/kg; format: in vivo; conditions: for AUC: rat, read-out: RR AUC (rapid rat AUC, rrAUC)
[4] = LPS-stimulated human whole blood
[5] = human whole blood diluted 1:1, LPS stimulated
[6] = plasma, blood collected 0.5-6 h post-dosing
[7] = 3.5 h, human whole blood diluted 1:1, LPS stimulated, 3.5 h

T1 sequence (P78536 215-477 S266A/N452Q): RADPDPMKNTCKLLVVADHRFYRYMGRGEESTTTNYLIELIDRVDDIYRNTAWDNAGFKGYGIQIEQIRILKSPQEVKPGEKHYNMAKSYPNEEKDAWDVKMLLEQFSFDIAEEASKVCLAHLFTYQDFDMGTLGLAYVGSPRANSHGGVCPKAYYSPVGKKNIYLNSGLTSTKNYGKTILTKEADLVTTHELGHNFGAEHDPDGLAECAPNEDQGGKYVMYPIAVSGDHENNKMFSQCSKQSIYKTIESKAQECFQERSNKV

SMILES | pKi ([1]; read-out: Ki) | pIC50 [2, 7] | AUC ([3]; plasma 0.5-6 h post-dosing) [µM·h] | also measured
COc1ccc2c(c1)C(=O)N(C[C@@]1(c3cc4nc(-c5ccc(C#N)nc5)ccc4o3)NC(=O)NC1=O)C2 [Compound 1530] | 9.15 |  |  | pIC50 [2, 4]: 5.79; RR AUC (rapid rat AUC, rrAUC) ([3]; plasma 0.5-6 h): 0.536 µM·h
COc1ccc2c(c1F)C(=O)N(C[C@@]1(c3cc4cc5c(cc4o3)C(=O)NCC5)NC(=O)NC1=O)C2 [Compound 2491] | 9.71 |  |  | pIC50 [2, 5]: 6.96; AUC [3, 6]: 0.972 µM·h
COc1ccc2c(c1F)C(=O)N(C[C@@]1(c3cc4nc(N)ccc4o3)NC(=O)NC1=O)C2 [Compound 1910] | 9.47 |  |  | pIC50 [2, 4]: 6.82; AUC ([3]; plasma 0.5-6 h): 0.351 µM·h
COc1ccc2c(c1)C(=O)N(C[C@@]1(c3cc4cc(-c5ccncc5)cnc4o3)NC(=O)NC1=O)C2 [Compound 2255] | 9.28 | 6.40 | 0.527 | 
COc1ccc2c(c1F)C(=O)N(C[C@@]1(c3cc4cc([C@@]5(C)NC(=O)NC5=O)c(F)cc4o3)NC(=O)NC1=O)C2 (single isomer, unassigned) [Compound 1326] | 9.20 |  |  | pIC50 [2, 4]: 6.81; AUC ([3]; plasma 0.5-6 h): 1.04 µM·h
COc1ccc2c(c1)C(=O)N(C[C@@]1(c3cc4nc(N5C(=O)CC[C@H]5CO)ccc4o3)NC(=O)NC1=O)C2 [Compound 2156] | 9.01 | 6.49 | 0.033 | 
COc1ccc2c(c1)C(=O)N(C[C@@]1(c3cc4c(C(C)O)nccc4o3)NC(=O)NC1=O)C2 (stereo partly drawn) [Compound 2294] | 9.26 |  |  | pIC50 [2, 5]: 6.49; AUC [3, 6]: 0.154 µM·h
CCOC(=O)C1CCCN(c2ccc3oc([C@]4(CN5Cc6ccc(OC)cc6C5=O)NC(=O)NC4=O)cc3n2)C1 (stereo partly drawn) [Compound 1516] | 9.30 |  |  | pIC50 [2, 4]: 5.76; AUC ([3]; plasma 0.5-6 h): 0.041 µM·h
COc1ccc2c(c1F)C(=O)N(C[C@@]1(c3cc4cc(F)cnc4o3)NC(=O)NC1=O)C2 [Compound 2277] |  | 6.30 | 26.2 | pKi ([1]; Ki): 9.30
COc1ccc2c(c1Cl)C(=O)N(C[C@@]1(c3cc4ncccc4o3)NC(=O)NC1=O)C2 [Compound 2153] | 8.96 | 5.58 | 1.76 | 
COc1ccc2c(c1)C(=O)N(C[C@@]1(c3cc4nc(N5CC[C@@H](O)C5)ccc4o3)NC(=O)NC1=O)C2 [Compound 2166] | 9.56 | 6.85 | 0.6 | 
COc1ccc2c(c1F)C(=O)N(C[C@@]1(c3cc4ncc(F)cc4o3)NC(=O)NC1=O)C2 [Compound 1311] | 8.93 |  |  | pIC50 [2, 4]: 6.53; AUC ([3]; plasma 0.5-6 h): 14.6 µM·h
COc1ccc2c(c1F)C(=O)N(C[C@@]1(c3cc4cnc(C)cc4o3)NC(=O)NC1=O)C2 [Compound 30] | 9.42 | 6.69 | 26.3 | 
COc1ccc2c(c1F)C(=O)N(C[C@@]1(c3cc4cnccc4o3)NC(=O)NC1=O)C2 [Compound 2310] | 9.43 |  |  | pIC50 [2, 5]: 6.71; AUC [3, 6]: 2.31 µM·h
COc1ccc2c(c1)C(=O)N(C[C@@]1(c3cc4nc(NC5CCN(C)CC5)ccc4o3)NC(=O)NC1=O)C2 [Compound 2141] | 9.22 | 6.42 | 2.71 | 
COc1ccc2c(c1)C(=O)N(C[C@@]1(c3cc4nc(N5CC[C@H](O)C5=O)ccc4o3)NC(=O)NC1=O)C2 [Compound 2159] | 9.03 | 6.48 | 0.527 | 
COc1ccc2c(c1)C(=O)N(C[C@@]1(c3cc4cc(-c5cc[nH]n5)ccc4o3)NC(=O)NC1=O)C2 [Compound 2219] | 9.17 | 5.86 | 1.02 | 
COc1ccc2c(c1)C(=O)N(C[C@@]1(c3cc4nc(-c5cnn(CC(C)C)c5)ccc4o3)NC(=O)NC1=O)C2 [Compound 2115] | 9.71 | 6.01 | 0.349 | 
COc1ccc2c(c1)C(=O)N(C[C@@]1(c3cc4c(C(N)=O)nccc4o3)NC(=O)NC1=O)C2 [Compound 2401] | 9.24 |  |  | pIC50 [2, 5]: 6.57; AUC [3, 6]: 1.43 µM·h
CCN1CCN(c2ccc3oc([C@]4(CN5Cc6ccc(OC)cc6C5=O)NC(=O)NC4=O)cc3n2)CC1 [Compound 2123] | 9.09 | 6.87 | 0.727 | 
COc1ccc2c(c1)C(=O)N(C[C@@]1(c3cc4nc(-c5cn[nH]c5)ccc4o3)NC(=O)NC1=O)C2 [Compound 2100] | 9.71 | 7.00 | 0.104 | 
COc1ccc2c(c1)C(=O)N(C[C@@]1(c3cc4nc(Nc5onc(C)c5C)ccc4o3)NC(=O)NC1=O)C2 [Compound 2132] |  | 5.50 | 0.145 | pKi ([1]; Ki): 9.23
COc1ccc2c(c1)C(=O)N(C[C@@]1(c3cc4nc(N5CCCCC5)ccc4o3)NC(=O)NC1=O)C2 [Compound 2168] | 9.47 | 6.05 | 3.53 | 
